According to ChEMBL document CHEMBL1148916, “Additional cytotoxic sterols and saponins from the starfish certonardoa semiregularis” (2004):
Converted amounts (≈) assume the structure as drawn.

Key:
Assay type in all cases: functional
Settings in all cases: read-out: ED50 (the source's name)
SK-OV-3 = assay: Cytotoxicity against human SKOV3 cells
HCT-15 = assay: Cytotoxicity against human HCT15 cells
SK-MEL-2 = assay: Cytotoxicity against human SK-MEL-2 cells
XF498 = assay: Cytotoxicity against human XF498 cells
A549 = assay: Cytotoxicity against human A549 cells

SMILES	EC50 (SK-OV-3)	EC50 (HCT-15)	EC50 (SK-MEL-2)	EC50 (XF498)	EC50 (A549)
C[C@H](CO)CCC[C@@H](C)[C@H]1C[C@@H](O)[C@@H]2[C@]1(C)CC[C@@H]1[C@@]3(C)CC[C@H](O)[C@H](O)[C@@H]3[C@@H](O)C[C@]12O [CERTONARDOSTEROL A3]	16.2 µg/mL (≈ 34.6 µM)	20.3 µg/mL (≈ 43.3 µM)	5.24 µg/mL (≈ 11.2 µM)	18.6 µg/mL (≈ 39.7 µM)	11.7 µg/mL (≈ 25 µM)
CC(/C=C/[C@@H](C)[C@H]1C[C@@H](O)[C@@H]2[C@]1(C)CC[C@@H]1[C@@]3(C)CC[C@H](O)[C@H](O)[C@@H]3[C@@H](O)C[C@]12O)[C@@H](C)O (stereo not given in full) [CERTONARDOSTEROL A4]	16.4 µg/mL (≈ 35.1 µM)	19.3 µg/mL (≈ 41.4 µM)	5.7 µg/mL (≈ 12.2 µM)	28.4 µg/mL (≈ 60.9 µM)	17 µg/mL (≈ 36.4 µM)
CC(C)[C@@H](O)CC[C@@H](C)[C@H]1CC(=O)[C@@H]2[C@]1(C)CC[C@@H]1[C@@]3(C)CC[C@H](O)C[C@@H]3[C@@H](O)C[C@]12O [CERTONARDOSTEROL Q3]	12.3 µg/mL (≈ 27.3 µM)	13.6 µg/mL (≈ 30.2 µM)	7.3 µg/mL (≈ 16.2 µM)	12.6 µg/mL (≈ 28 µM)	5.43 µg/mL (≈ 12 µM)
CC(C)[C@@H](O)CC[C@@H](C)[C@H]1CC(=O)C2=C3C[C@H](O)[C@H]4C[C@@H](O)CC[C@]4(C)[C@H]3CC[C@@]21C [CERTONARDOSTEROL Q6]	0.22 µg/mL (≈ 0.509 µM)	0.48 µg/mL (≈ 1.11 µM)	0.17 µg/mL (≈ 0.393 µM)	0.12 µg/mL (≈ 0.277 µM)	0.43 µg/mL (≈ 0.994 µM)
COc1cccc2c1C(=O)c1c(O)c3c(c(O)c1C2=O)C[C@@](O)(C(=O)CO)C[C@@H]3O[C@H]1C[C@H](N)[C@H](O)[C@H](C)O1 [DOXORUBICIN]	0.12 µg/mL (≈ 0.221 µM)	0.18 µg/mL (≈ 0.331 µM)	0.05 µg/mL (≈ 0.092 µM)	0.12 µg/mL (≈ 0.221 µM)	0.04 µg/mL (≈ 0.0736 µM)
CO[C@H]1[C@H](O[C@H]2[C@H](O[C@@H](CC[C@@H](C)[C@H]3C[C@@H](O)[C@H]4[C@@H]5C[C@H](O)[C@H]6[C@@H](O)[C@@H](O)CC[C@]6(C)[C@H]5CC[C@@]43C)C(C)C)O[C@H](CO)[C@@H]2O)OC[C@@H](O)[C@@H]1O [CERTONARDOSIDE H3]	2.8 µg/mL (≈ 3.83 µM)	7.2 µg/mL (≈ 9.85 µM)	0.82 µg/mL (≈ 1.12 µM)	0.52 µg/mL (≈ 0.711 µM)	3.65 µg/mL (≈ 4.99 µM)
CC(/C=C/[C@@H](C)[C@H]1C[C@@H](O)[C@@H]2[C@]1(C)CC[C@@H]1[C@@]3(C)CC[C@H](O)[C@H](O)[C@@H]3[C@@H](O)C[C@]12O)CO (stereo not given in full)	> 30 µg/mL	> 30 µg/mL	> 30 µg/mL	> 30 µg/mL	> 30 µg/mL
CC(C)[C@@H](O)CC[C@@H](C)[C@H]1CC(=O)[C@@H]2[C@]1(C)CC[C@@H]1[C@@]3(C)CC[C@H](O)[C@H](O)[C@@H]3[C@@H](O)C[C@]12O [CERTONARDOSTEROL Q2]	6.85 µg/mL (≈ 14.7 µM)	5.82 µg/mL (≈ 12.5 µM)	4.2 µg/mL (≈ 9 µM)	4.1 µg/mL (≈ 8.79 µM)	6.94 µg/mL (≈ 14.9 µM)
CC(C)[C@](O)(CO)CC[C@@H](C)[C@H]1C[C@@H](O)[C@H]2[C@@H]3C[C@H](O)[C@H]4[C@@H](O)[C@@H](O)CC[C@]4(C)[C@H]3CC[C@@]21C [CERTONARDOSTEROL B4]	36.6 µg/mL (≈ 75.8 µM)	> 30 µg/mL	7.5 µg/mL (≈ 15.5 µM)	> 30 µg/mL	> 30 µg/mL
C=C(CC[C@@H](C)[C@H]1CC(=O)[C@@H]2[C@]1(C)CC[C@@H]1[C@@]3(C)CC[C@H](O)[C@H](O)[C@@H]3[C@@H](O)C[C@]12O)[C@H](C)CO [CERTONARDOSTEROL Q1]	10.9 µg/mL (≈ 22.8 µM)	11.6 µg/mL (≈ 24.2 µM)	5.57 µg/mL (≈ 11.6 µM)	4.95 µg/mL (≈ 10.3 µM)	12 µg/mL (≈ 25.1 µM)
CC(C)[C@H](CC[C@@H](C)[C@H]1C[C@@H](O)[C@H]2[C@@H]3C[C@H](O)[C@H]4[C@@H](O)[C@@H](O)CC[C@]4(C)[C@H]3CC[C@@]21C)O[C@@H]1O[C@H](CO)[C@H](O)[C@H]1O [CERTONARDOSIDE H4]	> 30 µg/mL	> 30 µg/mL	8.3 µg/mL (≈ 14.2 µM)	> 30 µg/mL	> 30 µg/mL
CC(C)[C@@H](O)CC[C@@H](C)[C@H]1CC(=O)C2=C3C[C@H](O)[C@H]4[C@@H](O)[C@@H](O)CC[C@]4(C)[C@H]3CC[C@@]21C [CERTONARDOSTEROL Q7]	6.65 µg/mL (≈ 14.8 µM)	7.1 µg/mL (≈ 15.8 µM)	4.66 µg/mL (≈ 10.4 µM)	3.8 µg/mL (≈ 8.47 µM)	4.58 µg/mL (≈ 10.2 µM)
CC(/C=C/[C@@H](C)[C@H]1C[C@@H](O)[C@H]2[C@@H]3C[C@H](O)[C@H]4[C@@H](O)[C@@H](O)CC[C@]4(C)[C@H]3CC[C@@]21C)CO (stereo not given in full) [CERTONARDOSTEROL B3]	12.1 µg/mL (≈ 27.7 µM)	10.4 µg/mL (≈ 23.8 µM)	7.13 µg/mL (≈ 16.3 µM)	14.7 µg/mL (≈ 33.7 µM)	12.5 µg/mL (≈ 28.6 µM)
C[C@H](CO)CCC[C@@H](C)[C@H]1CC(=O)C2=C3C[C@H](O)[C@H]4[C@@H](O)[C@@H](O)CC[C@]4(C)[C@H]3CC[C@@]21C [CERTONARDOSTEROL Q4]	4.1 µg/mL (≈ 9.14 µM)	4.2 µg/mL (≈ 9.36 µM)	3.4 µg/mL (≈ 7.58 µM)	2.9 µg/mL (≈ 6.46 µM)	3.8 µg/mL (≈ 8.47 µM)
C=C(CC[C@@H](C)[C@H]1CC(=O)C2=C3C[C@H](O)[C@H]4[C@@H](O)[C@@H](O)CC[C@]4(C)[C@H]3CC[C@@]21C)[C@H](C)CO [CERTONARDOSTEROL Q5]	> 30 µg/mL	> 30 µg/mL	> 30 µg/mL	> 30 µg/mL	> 30 µg/mL
